Test [1] deals with wild-type un-phosphorylated FGFR4 (Homo sapiens, UniProt P22455). As to the kind of experiment: FGFR Enzymatic Assay (FRET peptide phosphorylation), FGFR4.
Experimental: (§1) The inhibitor potency of the exemplified compounds was determined in an enzyme discontinuous assay that measures peptide phosphorylation using FRET measurements to detect product formation. Inhibitors were serially diluted in DMSO and a volume of 0.2 μL was transferred to the wells of a 384-well plate. […] Appropriate controls (enzyme blank and enzyme with no inhibitor) were included on the plate. […] The 10 μL/well reaction concentration of the peptide substrate was 500 nM whereas the ATP concentration was maintained near or below the ATP Km. The ATP Km values were pre-determined in a separate series of experiments. The reaction plate was incubated at 25° C. for 1 hr and the reactions were ended with the addition of 5 μL/well of quench solution (50 mM Tris, 150 mM NaCl, 0.5 mg/mL BSA, pH 7.8; 45 mM EDTA, 600 nM staurosporin, with Perkin Elmer Lance Reagents at 3.75 nM Eu-antibody PY20 and 180 nM APC-Streptavidin). The plate was allowed to equilibrate for ˜10 minutes at ambient temperature before scanning on a PheraStar plate reader (BMG Labtech) instrument.
(§2) Either GraphPad prism or XLfit was used to analyze the data. The IC50 values were derived by fitting the data to a four parameter logistic equation producing a sigmoidal dose-response curve with a variable Hill coefficient. Prism equation: Y=Bottom+(Top-Bottom)/(1+10^((Log IC50-X)*Hill slope)); XLfit equation: Y=(A+((B−A)/(1+((X/C)^D)))) where X is the logarithm of inhibitor concentration and Y is the response.
(§3) GraphPad prism3 was used to analyze the data. The IC50 values were derived by fitting the data to the equation for a sigmoidal dose-response with a variable slope. Y=Bottom+(Top-Bottom)/(1+10^((Log IC50-X)*Hill Slope)) where X is the logarithm of concentration and Y is the response.
(§4) The data in Table 1 was measured in wild-type un-phosphorylated FGFR1, FGFR2, FGFR3, and FGFR4 proteins.
Test [2] addresses wild-type un-phosphorylated FGFR2 (Homo sapiens, UniProt P21802). As to the kind of experiment: FGFR Enzymatic Assay (FRET peptide phosphorylation), FGFR2.
Experimental: as §1, §2, §3, §4
Test [3] has as its target wild-type un-phosphorylated FGFR3 (Homo sapiens, UniProt P22607). As to the kind of experiment: FGFR Enzymatic Assay (FRET peptide phosphorylation), FGFR3.
In test [4] the target is wild-type un-phosphorylated FGFR1 (Homo sapiens, UniProt P11362). As to the kind of experiment: FGFR Enzymatic Assay (FRET peptide phosphorylation), FGFR1. The following applies: pre-incubated for 4 hours.
Sequence of wild-type un-phosphorylated FGFR1 (P11362 22-822): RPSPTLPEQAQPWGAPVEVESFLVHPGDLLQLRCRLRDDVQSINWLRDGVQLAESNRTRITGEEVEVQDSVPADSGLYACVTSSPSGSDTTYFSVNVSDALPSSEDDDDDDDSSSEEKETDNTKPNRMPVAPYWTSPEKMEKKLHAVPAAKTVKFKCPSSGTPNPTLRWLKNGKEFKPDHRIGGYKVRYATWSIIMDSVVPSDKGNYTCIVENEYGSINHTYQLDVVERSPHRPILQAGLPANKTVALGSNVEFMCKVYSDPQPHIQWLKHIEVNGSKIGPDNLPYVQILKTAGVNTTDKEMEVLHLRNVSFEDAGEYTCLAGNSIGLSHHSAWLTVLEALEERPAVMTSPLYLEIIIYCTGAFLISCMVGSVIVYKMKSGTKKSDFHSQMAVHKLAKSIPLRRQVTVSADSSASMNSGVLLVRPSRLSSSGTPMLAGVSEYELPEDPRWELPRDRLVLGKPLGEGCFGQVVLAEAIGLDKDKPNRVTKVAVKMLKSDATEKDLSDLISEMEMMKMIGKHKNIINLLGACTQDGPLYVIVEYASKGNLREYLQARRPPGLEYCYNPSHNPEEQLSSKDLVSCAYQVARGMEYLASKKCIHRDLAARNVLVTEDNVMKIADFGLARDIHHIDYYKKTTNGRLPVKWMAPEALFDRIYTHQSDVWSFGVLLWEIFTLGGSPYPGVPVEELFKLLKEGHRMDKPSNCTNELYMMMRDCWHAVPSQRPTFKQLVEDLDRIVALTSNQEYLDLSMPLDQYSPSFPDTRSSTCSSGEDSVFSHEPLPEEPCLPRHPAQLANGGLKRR
[5] abbreviates: FGFR1, wild-type un-phosphorylated FGFR1.
The mark [6] stands for this setting: read-out: FGFR4, wild-type un-phosphorylated FGFR4, pre-incubated for 4 hours.
[7] abbreviates: read-out: FGFR1, wild-type un-phosphorylated FGFR1.
Setting [8] is: read-out: FGFR2, wild-type un-phosphorylated FGFR2, pre-incubated for 4 hours.

Read-outs that look alike come from different tables or passages of the source.

Sequence of wild-type un-phosphorylated FGFR4 (P22455 22-802): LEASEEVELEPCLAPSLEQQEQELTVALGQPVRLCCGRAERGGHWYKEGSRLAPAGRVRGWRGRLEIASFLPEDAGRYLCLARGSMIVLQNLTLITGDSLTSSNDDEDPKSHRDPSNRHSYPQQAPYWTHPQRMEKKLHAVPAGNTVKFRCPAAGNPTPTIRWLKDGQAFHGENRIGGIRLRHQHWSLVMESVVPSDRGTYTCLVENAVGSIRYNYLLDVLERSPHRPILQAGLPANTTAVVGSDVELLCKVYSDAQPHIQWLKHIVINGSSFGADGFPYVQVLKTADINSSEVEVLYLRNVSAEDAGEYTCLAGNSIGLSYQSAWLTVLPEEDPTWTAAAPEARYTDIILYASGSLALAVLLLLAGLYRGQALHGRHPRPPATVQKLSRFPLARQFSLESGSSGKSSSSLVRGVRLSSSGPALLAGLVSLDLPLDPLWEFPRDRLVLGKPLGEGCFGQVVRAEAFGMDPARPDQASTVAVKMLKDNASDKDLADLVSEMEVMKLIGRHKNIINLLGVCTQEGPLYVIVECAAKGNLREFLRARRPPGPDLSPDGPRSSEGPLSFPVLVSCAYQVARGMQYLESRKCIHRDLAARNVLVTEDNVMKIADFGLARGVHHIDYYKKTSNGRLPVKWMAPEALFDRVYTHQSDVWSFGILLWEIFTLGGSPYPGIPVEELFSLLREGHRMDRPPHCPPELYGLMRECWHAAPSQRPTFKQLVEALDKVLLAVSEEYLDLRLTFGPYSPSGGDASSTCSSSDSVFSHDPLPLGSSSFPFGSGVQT
Sequence of wild-type un-phosphorylated FGFR2 (P21802 22-821): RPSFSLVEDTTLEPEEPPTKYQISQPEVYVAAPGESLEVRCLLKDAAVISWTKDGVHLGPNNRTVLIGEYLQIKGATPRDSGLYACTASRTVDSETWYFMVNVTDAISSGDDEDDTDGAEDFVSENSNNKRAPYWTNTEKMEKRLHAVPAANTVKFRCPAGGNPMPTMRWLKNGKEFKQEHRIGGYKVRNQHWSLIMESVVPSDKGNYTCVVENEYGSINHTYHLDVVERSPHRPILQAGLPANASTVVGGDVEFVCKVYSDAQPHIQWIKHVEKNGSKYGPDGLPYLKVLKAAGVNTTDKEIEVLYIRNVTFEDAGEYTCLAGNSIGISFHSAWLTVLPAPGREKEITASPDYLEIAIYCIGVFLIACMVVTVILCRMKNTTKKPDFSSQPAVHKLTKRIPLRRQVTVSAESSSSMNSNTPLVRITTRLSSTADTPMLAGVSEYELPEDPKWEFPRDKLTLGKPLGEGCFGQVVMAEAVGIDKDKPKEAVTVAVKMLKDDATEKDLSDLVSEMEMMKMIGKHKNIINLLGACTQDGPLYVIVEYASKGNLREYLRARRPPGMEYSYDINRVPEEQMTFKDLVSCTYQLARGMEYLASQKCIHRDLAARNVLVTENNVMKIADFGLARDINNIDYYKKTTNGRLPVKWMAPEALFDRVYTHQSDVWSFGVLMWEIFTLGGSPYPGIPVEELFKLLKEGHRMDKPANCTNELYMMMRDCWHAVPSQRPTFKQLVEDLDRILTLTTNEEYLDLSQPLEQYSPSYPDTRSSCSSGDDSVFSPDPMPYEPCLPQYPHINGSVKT
Sequence of wild-type un-phosphorylated FGFR3 (P22607 23-806): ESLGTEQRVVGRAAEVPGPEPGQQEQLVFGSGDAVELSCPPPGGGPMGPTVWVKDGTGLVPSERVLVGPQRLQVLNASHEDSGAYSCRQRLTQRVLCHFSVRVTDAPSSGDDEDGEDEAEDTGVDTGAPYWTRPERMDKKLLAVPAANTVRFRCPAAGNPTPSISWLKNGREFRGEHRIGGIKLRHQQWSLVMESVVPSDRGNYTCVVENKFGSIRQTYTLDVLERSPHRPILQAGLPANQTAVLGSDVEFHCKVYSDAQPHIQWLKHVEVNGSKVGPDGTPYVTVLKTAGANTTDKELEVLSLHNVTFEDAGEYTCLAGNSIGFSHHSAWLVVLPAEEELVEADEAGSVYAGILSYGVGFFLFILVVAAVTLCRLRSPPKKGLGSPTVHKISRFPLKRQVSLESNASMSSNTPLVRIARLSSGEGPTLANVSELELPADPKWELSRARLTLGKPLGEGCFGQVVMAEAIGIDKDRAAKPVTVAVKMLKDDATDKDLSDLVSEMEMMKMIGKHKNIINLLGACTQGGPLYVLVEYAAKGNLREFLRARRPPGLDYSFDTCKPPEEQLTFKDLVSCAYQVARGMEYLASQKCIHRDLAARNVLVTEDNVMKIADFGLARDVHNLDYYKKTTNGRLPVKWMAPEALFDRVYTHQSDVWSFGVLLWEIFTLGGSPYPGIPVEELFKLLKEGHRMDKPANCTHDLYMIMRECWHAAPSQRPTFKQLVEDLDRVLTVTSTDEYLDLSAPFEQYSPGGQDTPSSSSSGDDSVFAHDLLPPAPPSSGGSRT

Regarding `COc1cc2[nH]nc(-c3ccc(C4CN(C(=O)[C@H](C)O)C4)nc3)c2nc1-c1cccc2c1CCC2` [Example 177, (S)-1-(3-(5-(5-(2,3-Dihydro-1H-inden-4-yl)-6-methoxy-1H-pyrazolo[4,3-b]pyridin-3-yl)pyridin-2-yl)azetidin-1-yl)-2-hydroxypropan-1-one], the IC50 is 40 to 100 nM in test [1], under 6 nM in test [2], under 6 nM in test [3] and 40 to 100 nM in test [4] (setting [5]).

Take `COc1cc2[nH]nc(-c3cnn(C4CN(C(=O)C5(CO)CCC5)C4)c3)c2nc1-c1cccc2c1CCC2` [Example 139, (3-(4-(5-(2,3-Dihydro-1H-inden-4-yl)-6-methoxy-1H-pyrazolo[4,3-b]pyridin-3-yl)-1H-pyrazol-1-yl)azetidin-1-yl)(1-(hydroxymethyl)cyclobutyl)methanone]: the IC50 in test [1] (setting [6]) is 6 to 40 nM; in test [2], under 6 nM; in test [3] it was under 6 nM; in test [4] (setting [7]) it was 6 to 40 nM.

In the case of `COc1cc2[nH]nc(-c3cnn(C4CC(C#N)C4)c3)c2nc1-c1cccc2c1CCC2` (centres unmarked) [Example 16, 3-(4-(5-(2,3-Dihydro-1H-inden-4-yl)-6-methoxy-1H-pyrazolo[4,3-b]pyridin-3-yl)-1H-pyrazol-1-yl)cyclobutanecarbonitrile], the IC50 in test [1] is over 100 nM; in test [2], under 6 nM; in test [3] it was under 6 nM; in test [4] (setting [5]) it was 40 to 100 nM.

Take `COc1cc2[nH]nc(-c3ccc(C4CC(N(C)C(=O)CCO)C4)nc3)c2nc1-c1cccc2c1CCC2` (centres unmarked) [Example 189, N-(3-(5-(5-(2,3-Dihydro-1H-inden-4-yl)-6-methoxy-1H-pyrazolo[4,3-b]pyridin-3-yl)pyridin-2-yl)cyclobutyl)-3-hydroxy-N-methylpropanamide]: the IC50 in test [1] (setting [6]) was 6 to 40 nM; in test [2] it was under 6 nM; in test [3], under 6 nM; in test [4] (setting [7]), 6 to 40 nM.

On to `COCCN1CCN(c2ccc(-c3n[nH]c4cc(OC)c(-c5cccc(CC#N)c5C)nc34)cn2)CC1` [Example 166, 2-(3-(6-Methoxy-3-(6-(4-(2-methoxyethyl)piperazin-1-yl)pyridin-3-yl)-1H-pyrazolo[4,3-b]pyridin-5-yl)-2-methylphenyl)acetonitrile], for which the IC50 in test [1] was 40 to 100 nM; in test [2] it was under 6 nM; in test [3], under 6 nM; in test [4] (setting [5]), 40 to 100 nM.

Regarding `COc1cc2[nH]nc(-c3ccc(CN4CCN(C)C(=O)[C@@H]4C)nc3)c2nc1-c1cccc2c1CCC2` [Example 199, (S)-4-((5-(5-(2,3-Dihydro-1H-inden-4-yl)-6-methoxy-1H-pyrazolo[4,3-b]pyridin-3-yl)pyridin-2-yl)methyl)-1,3-dimethylpiperazin-2-one], the IC50 in test [1] is 40 to 100 nM; in test [2] it was under 6 nM; in test [3], under 6 nM; in test [4] (setting [5]), 40 to 100 nM.

With `COc1cc2[nH]nc(-c3ccc(C4CC(N(C)C(=O)CO)C4)nc3)c2nc1-c1cccc2c1CCC2` (centres unmarked) [Example 178, N-(3-(5-(5-(2,3-Dihydro-1H-inden-4-yl)-6-methoxy-1H-pyrazolo[4,3-b]pyridin-3-yl)pyridin-2-yl)cyclobutyl)-2-hydroxy-N-methylacetamide], the IC50 in test [1] (setting [6]) was 6 to 40 nM; in test [2], under 6 nM; in test [3] it was under 6 nM; in test [4] (setting [7]), 6 to 40 nM.

`COc1cc2[nH]nc(-c3ccc(C4CCN(C(C)C(N)=O)C4)nc3)c2nc1-c1cccc2c1CCC2` (single isomer, unassigned) [Example 107, 2-(3-(5-(5-(2,3-Dihydro-1H-inden-4-yl)-6-methoxy-1H-pyrazolo[4,3-b]pyridin-3-yl)pyridin-2-yl)pyrrolidin-1-yl)propanamide]: the IC50 was 6 to 40 nM in test [1] (setting [6]), under 6 nM in test [2], under 6 nM in test [3] and 6 to 40 nM in test [4] (setting [7]).

Turning to `COc1cc2[nH]nc(-c3ccc(C4(C#N)CCN(C(=O)CO)CC4)nc3)c2nc1-c1cccc2c1CCC2` [Example 165, 4-(5-(5-(2,3-Dihydro-1H-inden-4-yl)-6-methoxy-1H-pyrazolo[4,3-b]pyridin-3-yl)pyridin-2-yl)-1-(2-hydroxyacetyl)piperidine-4-carbonitrile], the IC50 in test [1] (setting [6]) was 6 to 40 nM; in test [2], under 6 nM; in test [3] it was under 6 nM; in test [4] (setting [7]) it was 6 to 40 nM.

With `COc1cc2[nH]nc(-c3cnn(C4CN(C(=O)[C@H]5C[C@H](O)C5)C4)c3)c2nc1-c1cccc2c1CCC2` [Example 125, (3-(4-(5-(2,3-Dihydro-1H-inden-4-yl)-6-methoxy-1H-pyrazolo[4,3-b]pyridin-3-yl)-1H-pyrazol-1-yl)azetidin-1-yl)((trans)-3-hydroxycyclobutyl)methanone], the IC50 in test [1] (setting [6]) was 6 to 40 nM; in test [2], under 6 nM; in test [3] it was under 6 nM; in test [4] (setting [7]), 6 to 40 nM.

As for `COc1cc2[nH]nc(-c3ccc(C4CN(C(=O)CCO)C4)nc3)c2nc1-c1cccc2c1CCC2` [Example 175, 1-(3-(5-(5-(2,3-Dihydro-1H-inden-4-yl)-6-methoxy-1H-pyrazolo[4,3-b]pyridin-3-yl)pyridin-2-yl)azetidin-1-yl)-3-hydroxypropan-1-one], the IC50 was 6 to 40 nM in test [1] (setting [6]), under 6 nM in test [2], under 6 nM in test [3] and 6 to 40 nM in test [4] (setting [7]).

On to `COc1cc2[nH]nc(-c3ccc(C45CC4CN(CCO)C5)nc3)c2nc1-c1cccc2c1CCC2` (centres unmarked) [Example 194A, 2-(1-(5-(5-(2,3-Dihydro-1H-inden-4-yl)-6-methoxy-1H-pyrazolo[4,3-b]pyridin-3-yl)pyridin-2-yl)-3-azabicyclo[3.1.0]hexan-3-yl)ethan-1-ol], for which the IC50 in test [1] (setting [6]) is 6 to 40 nM; in test [2], under 6 nM; in test [3] it was under 6 nM; in test [4] (setting [7]) it was 6 to 40 nM.

As to `COc1cc2[nH]nc(-c3cnn(C4CN(C(=O)CN5CCC(O)CC5)C4)c3)c2nc1-c1cccc2c1CCC2` [Example 121, 1-(3-(4-(5-(2,3-Dihydro-1H-inden-4-yl)-6-methoxy-1H-pyrazolo[4,3-b]pyridin-3-yl)-1H-pyrazol-1-yl)azetidin-1-yl)-2-(4-hydroxypiperidin-1-yl)ethan-1-one], the IC50 in test [1] was 40 to 100 nM; in test [2], under 6 nM; in test [3], under 6 nM; in test [4] (setting [7]), 6 to 40 nM.

Consider `COc1cc2[nH]nc(-c3cnn(C4CN(C(=O)[C@H]5C[C@](C)(O)C5)C4)c3)c2nc1-c1cccc2c1CCC2` [Example 135, (3-(4-(5-(2,3-Dihydro-1H-inden-4-yl)-6-methoxy-1H-pyrazolo[4,3-b]pyridin-3-yl)-1H-pyrazol-1-yl)azetidin-1-yl)((1r,3r)-3-hydroxy-3-methylcyclobutyl)methanone], for which the IC50 in test [1] (setting [6]) is 6 to 40 nM; in test [2], under 6 nM; in test [3] it was under 6 nM; in test [4] (setting [7]), 6 to 40 nM.

For the compound `COc1cc2[nH]nc(-c3ccc(OC4CCOCC4)nc3)c2nc1-c1cccc2c1CC(O)C2` (centres unmarked) [Example 96, 4-(6-Methoxy-3-(6-((tetrahydro-2H-pyran-4-yl)oxy)pyridin-3-yl)-1H-pyrazolo[4,3-b]pyridin-5-yl)-2,3-dihydro-1H-inden-2-ol], the IC50 is over 100 nM in test [1], 6 to 40 nM in test [2] (setting [8]), under 6 nM in test [3] and 40 to 100 nM in test [4] (setting [5]).

`COc1cc2[nH]nc(-c3ccc(C4CCC(N(C)C(=O)CO)C4)nc3)c2nc1-c1cccc2c1CCC2` (single isomer, unassigned) [Example 155, N-(3-(5-(5-(2,3-Dihydro-1H-inden-4-yl)-6-methoxy-1H-pyrazolo[4,3-b]pyridin-3-yl)pyridin-2-yl)cyclopentyl)-2-hydroxy-N-methylacetamide]: the IC50 is 6 to 40 nM in test [1] (setting [6]), under 6 nM in test [2], under 6 nM in test [3] and 6 to 40 nM in test [4] (setting [7]).

With `COc1cc2[nH]nc(-c3cnn(C4CN(C(=O)[C@@H]5CCN5C(C)C)C4)c3)c2nc1-c1cccc2c1CCC2` [Example 142, (S)-(3-(4-(5-(2,3-Dihydro-1H-inden-4-yl)-6-methoxy-1H-pyrazolo[4,3-b]pyridin-3-yl)-1H-pyrazol-1-yl)azetidin-1-yl)(1-isopropylazetidin-2-yl)methanone], the IC50 in test [1] was 40 to 100 nM; in test [2] it was under 6 nM; in test [3], under 6 nM; in test [4] (setting [7]), 6 to 40 nM.

As for `COc1cc2[nH]nc(-c3cnn(C)c3)c2nc1-c1cccc(C)c1C` [Example 1, 5-(2,3-Dimethylphenyl)-6-methoxy-3-(1-methyl-1H-pyrazol-4-yl)-1H-pyrazolo[4,3-b]pyridine], the IC50 in test [1] is over 100 nM; in test [2] (setting [8]), 6 to 40 nM; in test [3], under 6 nM; in test [4] (setting [5]), over 100 nM.

As for `COc1cc2[nH]nc(-c3ccc(N4CCN(CCO)CC4)nc3)c2nc1-c1cccc2c1CCC2C#N` (centres unmarked) [Example 114, 4-(3-(6-(4-(2-Hydroxyethyl)piperazin-1-yl)pyridin-3-yl)-6-methoxy-1H-pyrazolo[4,3-b]pyridin-5-yl)-2,3-dihydro-1H-indene-1-carbonitrile], the IC50 is 6 to 40 nM in test [1] (setting [6]), under 6 nM in test [2], under 6 nM in test [3] and 6 to 40 nM in test [4] (setting [7]).

As to `COc1cc2[nH]nc(-c3ccc(C4(C#N)CCN(CCO)CC4)nc3)c2nc1-c1cccc2c1CCC2` [Example 164, 4-(5-(5-(2,3-Dihydro-1H-inden-4-yl)-6-methoxy-1H-pyrazolo[4,3-b]pyridin-3-yl)pyridin-2-yl)-1-(2-hydroxyethyl)piperidine-4-carbonitrile], the IC50 in test [1] is 40 to 100 nM; in test [2] it was under 6 nM; in test [3], under 6 nM; in test [4] (setting [5]) it was 40 to 100 nM.
